Here are results for two compounds from patent publication US6566554B1, “Aminobenzophenones as inhibitors of IL-1β and TNF-α” (Leo Pharmaceutical Products Ltd. a/s (Lovens Kemiske Fabrik …, priority 1999, dated 2003).

Holding throughout (type): cell-based
Assay [1] relates to Human polymorphonuclear (PMN) granulocytes. The assay is described as follows: Inhibition of PMN superoxide secretion (ferricytochrome C reduction, TNF-α primed, fMLP stimulated). Particulars: fMLP 10^−7 M, read-out: The median inhibition concentration (IC50, nM) of PMN-superoxide. Here is the method: The compounds of the present invention also show similar activities in the ability to inhibit PMN (polymorphonuclear) superoxide secretion which is also indicative of potentially useful anti-inflammatory drugs. The compounds were tested using the following procedure. Human polymorphonuclear (PMN) granulocytes were isolated from human blood by dextran sedimentation, Lymphoprep® fractionation, and hypotonic lysis of contaminating erythrocytes. Superoxide anion generation was measured as the superoxide dismutase inhabitable reduction of ferricytochrome C (Madhu, S. B. et al, Inflammation, 16, 241, (1992)). The cells were suspended in Hank's balanced salt solution, and incubated for 10 minutes at 37° C. with test compounds. The cells were primed by the addition of TNF-α (3 ng/ml final concentration) for 10 minutes, and then ferricytochrome C, (final concentration 750 μg/ml), bovine serum albumin (BSA, final concentration 1 mg/ml) and formyl-methionyl-leucyl-phenylalanine (fMLP, final concentration 10^−7 M) were added for 3 minutes. The cells were chilled on ice, and were spun down. The optical densities in the cell-free supernatant was measured in a spectrophotometer. The median inhibitory concentration (IC50) of the compounds was calculated.

The next assay deals with TNF-α secretion. Kind of assay: Inhibition of TNF-α secretion in LPS stimulated peripheral blood mononuclear cells. The following applies: PBMC; LPS stimulated human peripheral blood mononuclear cells, 18 hours, ELISA; read-out: The median inhibition concentration (IC50, nM) of TNF-α. As for the experimental part:
(§1) To study the effect of the compound of the present invention in vitro the inhibition of the IL-1β and TNF-α secretion was measured using the following procedure:
(§2) Cytokine production was measured in the media from lipopolysaccharide (LPS) stimulated peripheral blood mononuclear cells. The mononuclear cells were isolated from human peripheral blood by Lymphoprep® (Nycomed, Norway) fractionation and suspended in RPMI 1640 (growth medium) with foetal calv serum (FCS, 2%), at a concentration of 5×10^5 cells/ml. The cells were incubated in 24-well tissue culture plates in 1 ml aliquots. Test compounds were dissolved in dimethylsulfoxide (DMSO, 10 mM) and were diluted with the medium. Compounds were added to the cells for 30 minutes, then LPS ([…] final concentration) was added. The plates were incubated for 18 hours, and the concentration of IL-1β and TNF-α in the medium was determined by enzyme-linked immunosorbent assays. The median inhibitory concentrations (IC50) of the compounds were calculated.
Background: ELISA stands for enzyme-linked immunosorbent assay.

A further assay deals with IL-1β secretion. The assay is described as follows: Inhibition of IL-1β secretion in LPS stimulated peripheral blood mononuclear cells. Particulars: PBMC; LPS stimulated human peripheral blood mononuclear cells, 18 hours, ELISA; read-out: The median inhibition concentration (IC50, nM) of IL-1β. Here is the method:
as §1, §2

Each structure is given as a SMILES string.

With `CCCCCCCC(=O)Nc1ccccc1Nc1ccc(C(=O)c2ccccc2C)c(Cl)c1` [Compound 102, 2′-[3-Chloro-4-(2-methylbenzoyl)-phenylamino]octananilide], the IC50 was 5 nM in assay [1], 6.3 nM in the assay on TNF-α secretion and 6.3 nM in the assay with IL-1β secretion.
Turning to `Cc1ccccc1C(=O)c1ccc(Nc2ccccc2NC(=O)CCC(=O)O)cc1Cl` [Compound 101, N-[2-[3-Chloro-4-(2-methylbenzoyl)-phenylamino]phenyl]-succinamic Acid], the figures for the IC50 (in assay [1]; in the assay on TNF-α secretion; in the assay on IL-1β secretion) were 63 nM, 25 nM and 200 nM, respectively.
